According to ChEMBL document CHEMBL1909046, “DrugMatrix in vitro pharmacology data”:

Tests used:
[1] = biological target: T1, Alpha-2C adrenergic receptor (Homo sapiens, UniProt P18825); test: DRUGMATRIX: Adrenergic Alpha-2C radioligand binding (ligand: [3H] MK-912); format: cell membranes, Sf9, Membrane; conditions: sf9
T1 sequence (P18825 whole entry): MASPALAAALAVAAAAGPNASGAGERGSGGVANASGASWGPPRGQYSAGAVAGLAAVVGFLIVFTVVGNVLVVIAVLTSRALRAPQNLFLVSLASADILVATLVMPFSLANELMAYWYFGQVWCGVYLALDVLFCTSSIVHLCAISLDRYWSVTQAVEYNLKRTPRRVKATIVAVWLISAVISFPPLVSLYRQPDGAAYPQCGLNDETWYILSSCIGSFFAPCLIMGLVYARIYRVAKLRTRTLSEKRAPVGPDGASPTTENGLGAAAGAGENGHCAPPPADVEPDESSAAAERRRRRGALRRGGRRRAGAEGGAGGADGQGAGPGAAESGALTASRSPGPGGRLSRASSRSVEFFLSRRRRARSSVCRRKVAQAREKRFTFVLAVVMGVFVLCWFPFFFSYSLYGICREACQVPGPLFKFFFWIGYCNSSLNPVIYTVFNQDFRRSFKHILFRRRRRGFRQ

[2] = DRUGMATRIX: beta-Lactamase enzyme inhibition (substrate: Nitrocefin); parameters: species or system Bacillus cereus; conditions: Not Active = under 50% inhibition at 10 µM
[3] = DRUGMATRIX: Calcium Channel Type L, Benzothiazepine radioligand binding (ligand: [3H] Diltiazem); format: cell membranes, Rattus norvegicus, Wistar, Brain, Membrane; conditions: Not Active = under 50% inhibition at 10 µM
[4] = biological target: T2, Cholecystokinin receptor type A (Homo sapiens, UniProt P32238); format: cell membranes, Membrane; conditions: 1321-n1; further: in other assays of this panel Not Active means under 50% inhibition at 10 µM
T2 sequence (P32238 whole entry): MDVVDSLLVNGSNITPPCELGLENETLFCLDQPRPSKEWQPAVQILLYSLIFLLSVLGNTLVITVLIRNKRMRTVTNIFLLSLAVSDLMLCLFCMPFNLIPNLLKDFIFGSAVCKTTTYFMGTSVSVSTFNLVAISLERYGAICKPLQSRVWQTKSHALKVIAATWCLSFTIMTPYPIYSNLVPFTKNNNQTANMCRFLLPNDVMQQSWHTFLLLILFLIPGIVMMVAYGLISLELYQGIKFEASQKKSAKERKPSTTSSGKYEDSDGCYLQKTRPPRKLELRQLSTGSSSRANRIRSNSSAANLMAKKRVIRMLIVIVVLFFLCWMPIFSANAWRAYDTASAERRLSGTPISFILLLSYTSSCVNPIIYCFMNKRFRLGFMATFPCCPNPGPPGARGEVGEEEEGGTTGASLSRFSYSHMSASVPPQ

Glycine receptor = Glycine receptor (Rattus norvegicus, UniProt P22771+P24524+P07727+P20781); format: cell membranes, Wistar, Spinal cord, Membrane; further: in other assays of this panel Not Active means under 50% inhibition at 10 µM
Melanocortin receptor 3 = Melanocortin receptor 3 (Homo sapiens, UniProt P41968); format: cell membranes, Membrane; conditions: hek293; further: in other assays of this panel Not Active means under 50% inhibition at 10 µM
Melanocortin receptor 3, sequence (P41968 whole entry): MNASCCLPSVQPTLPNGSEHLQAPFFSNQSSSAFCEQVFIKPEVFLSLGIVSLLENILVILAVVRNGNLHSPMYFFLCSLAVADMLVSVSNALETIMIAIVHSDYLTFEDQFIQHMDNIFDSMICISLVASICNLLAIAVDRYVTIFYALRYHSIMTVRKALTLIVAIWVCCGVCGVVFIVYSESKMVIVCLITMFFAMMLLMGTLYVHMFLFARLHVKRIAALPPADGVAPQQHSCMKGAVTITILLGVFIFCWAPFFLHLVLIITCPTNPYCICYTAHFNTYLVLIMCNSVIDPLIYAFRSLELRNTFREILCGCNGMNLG

[5] = biological target: Platelet-activating factor receptor (Homo sapiens, UniProt P25105); format: tissue-based; further: in other assays of this panel Not Active means under 50% inhibition at 10 µM
Platelet-activating factor receptor, sequence (P25105 whole entry): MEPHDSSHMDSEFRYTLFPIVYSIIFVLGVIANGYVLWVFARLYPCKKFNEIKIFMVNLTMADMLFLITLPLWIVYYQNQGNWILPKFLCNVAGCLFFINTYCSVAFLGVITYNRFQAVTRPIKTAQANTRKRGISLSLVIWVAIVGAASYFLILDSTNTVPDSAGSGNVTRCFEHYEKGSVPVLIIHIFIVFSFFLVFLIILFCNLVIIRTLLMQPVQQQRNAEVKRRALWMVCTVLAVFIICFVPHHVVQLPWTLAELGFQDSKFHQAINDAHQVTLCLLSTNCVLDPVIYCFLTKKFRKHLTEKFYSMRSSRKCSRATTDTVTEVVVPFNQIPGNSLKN

CC(=O)OC[C@H]1O[C@@H](n2ncc(=O)[nH]c2=O)[C@H](OC(C)=O)[C@@H]1OC(C)=O [AZARIBINE]
Not Active: IC50 [1] | IC50 [2] | Ki [2] | IC50 [3] | Ki [3] | IC50 [4] | IC50 (Glycine receptor) | IC50 (Melanocortin receptor 3) | IC50 [5]

NC(=O)N1c2ccccc2CC(=O)c2ccccc21 [OXCARBAZEPINE]
Not Active: IC50 [1] | IC50 [2] | Ki [2] | IC50 [3] | Ki [3] | IC50 [4] | IC50 (Glycine receptor) | IC50 (Melanocortin receptor 3) | IC50 [5]

C#C[C@]1(O)CC[C@H]2[C@@H]3CCC4=CC(=O)CC[C@]4(C)[C@H]3CC[C@@]21C [ETHISTERONE]
Not Active: IC50 [1] | IC50 [2] | Ki [2] | IC50 [3] | Ki [3] | IC50 [4] | IC50 (Glycine receptor) | IC50 (Melanocortin receptor 3) | IC50 [5]

CCC1=C(C)CN(C(=O)NCCc2ccc(S(=O)(=O)NC(=O)N[C@H]3CC[C@H](C)CC3)cc2)C1=O [GLIMEPIRIDE]
Not Active: IC50 [1] | IC50 [2] | Ki [2] | IC50 [3] | Ki [3] | IC50 [4] | IC50 (Glycine receptor) | IC50 (Melanocortin receptor 3) | IC50 [5]

O=C(O)CCCc1cccs1
Not Active: IC50 [1] | IC50 [2] | Ki [2] | IC50 [3] | Ki [3] | IC50 [4] | IC50 (Glycine receptor) | IC50 (Melanocortin receptor 3) | IC50 [5]

Cc1ccc(C)c(OCCCC(C)(C)C(=O)O)c1 [GEMFIBROZIL]
Not Active: IC50 [1] | IC50 [2] | Ki [2] | IC50 [3] | Ki [3] | IC50 [4] | IC50 (Glycine receptor) | IC50 (Melanocortin receptor 3) | IC50 [5]

NNCCc1ccccc1 [PHENELZINE]
Not Active: IC50 [1] | IC50 [2] | Ki [2] | IC50 [3] | Ki [3] | IC50 [4] | IC50 (Glycine receptor) | IC50 (Melanocortin receptor 3) | IC50 [5]

O=C(O)CCNC(=O)c1ccc(/N=N/c2ccc(O)c(C(=O)O)c2)cc1 [BALSALAZIDE]
Not Active: IC50 [1] | IC50 [2] | Ki [2] | IC50 [3] | Ki [3] | IC50 [4] | IC50 (Glycine receptor) | IC50 (Melanocortin receptor 3) | IC50 [5]

C[S+](C)[O-] [DIMETHYL SULFOXIDE]
Not Active: IC50 [1] | IC50 [2] | Ki [2] | IC50 [3] | Ki [3] | IC50 [4] | IC50 (Glycine receptor) | IC50 (Melanocortin receptor 3) | IC50 [5]

O=C(c1ccccc1F)N1CCC(Cc2ccccc2)CC1
Not Active: IC50 [1] | IC50 [2] | Ki [2] | IC50 [3] | Ki [3] | IC50 [4] | IC50 (Glycine receptor) | IC50 (Melanocortin receptor 3) | IC50 [5]

COc1cc(OC)c(C(=O)CCCN2CCCC2)c(OC)c1 [BUFLOMEDIL]
Not Active: IC50 [1] | IC50 [2] | Ki [2] | IC50 [3] | Ki [3] | IC50 [4] | IC50 (Glycine receptor) | IC50 (Melanocortin receptor 3) | IC50 [5]

COC(=O)Nc1nc2cc(C(=O)c3ccc(F)cc3)ccc2[nH]1 [FLUBENDAZOLE]
Not Active: IC50 [1] | IC50 [2] | Ki [2] | IC50 [3] | Ki [3] | IC50 [4] | IC50 (Glycine receptor) | IC50 (Melanocortin receptor 3) | IC50 [5]

COc1ccnc(C[S+]([O-])c2nc3ccc(OC(F)F)cc3[nH]2)c1OC (configuration not stated) [PANTOPRAZOLE]
Not Active: IC50 [1] | IC50 [2] | Ki [2] | IC50 [3] | Ki [3] | IC50 [4] | IC50 (Glycine receptor) | IC50 (Melanocortin receptor 3) | IC50 [5]
